# Results: PMC8615647, “Structural Rearrangements of a Dodecameric Ketol-Acid Reductoisomerase Isolated from a Marine Thermophilic Methanogen” (Biomolecules, 2021)
# T1: MtKARI (Methanothermococcus thermolithotrophicus, UniProt A0A8X6EH16)
# T1 construct: gene ilvC; native full-length class I enzyme purified from M. thermolithotrophicus, no tag; modelled residues 2-330 (Rossmann 2-183, knot 184-330); dodecamer 438 kDa
# T1 sequence (A0A8X6EH16 1-330): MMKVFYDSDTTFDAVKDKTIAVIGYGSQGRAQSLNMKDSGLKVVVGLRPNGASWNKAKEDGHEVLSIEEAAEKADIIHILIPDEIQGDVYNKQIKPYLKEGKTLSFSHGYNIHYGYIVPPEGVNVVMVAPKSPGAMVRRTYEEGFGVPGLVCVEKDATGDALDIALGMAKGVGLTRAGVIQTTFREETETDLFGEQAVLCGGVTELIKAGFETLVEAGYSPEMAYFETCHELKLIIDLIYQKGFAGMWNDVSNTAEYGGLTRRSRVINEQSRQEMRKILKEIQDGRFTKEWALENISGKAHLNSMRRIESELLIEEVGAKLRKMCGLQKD
# What was measured:
# [1] = molecular target: T1, MtKARI; experiment: X-ray crystallography; type: binding; settings: open state, 2.2 A; crystal soaked with 50 mM L-tartrate, 20 mM NADP, 50 mM MgCl2; Mg2+-free, pH 6.5; substrate analogue at the nicotinamide site
# [2] = molecular target: the molecule itself; experiment: native gel or EMSA; hrCN-PAGE, 5 to 15% gradient gel, 2 ug enriched MtKARI; cathode buffer with 0.05% sodium deoxycholate and 0.01% dodecyl maltoside, pH 7
Molecule,X-ray crystallography [1],stoichiometry N [2]
O=C(O)[C@H](O)[C@@H](O)C(=O)O [L-tartrate],tartrate takes the vacant position of the nicotinamide group of NADPH and is loosely bound,
"Ketol-acid reductoisomerase from Methanothermococcus thermolithotrophicus (enzyme, UniProt A0A8X6EH16 1-330, looked up, ketol-acid reductoisomerase (EC 1.1.1.86), class I, of Methanothermococcus thermolithotrophicus DSM 2095; native enzyme; model with Rossmann domain (2-183) and knot domain (184-330); stretch 47-53 is printed as LRPNGAS; Native protein without tags, identified by MALDI-TOF-MS; The crystals held NADP and Mg2+ (close state) or NADP and tartrate (open state); also called MtKARI; KARI; source: …) MMKVFYDSDTTFDAVKDKTIAVIGYGSQGRAQSLNMKDSGLKVVVGLRPNGASWNKAKEDGHEVLSIEEAAEKADIIHILIPDEIQGDVYNKQIKPYLKEGKTLSFSHGYNIHYGYIVPPEGVNVVMVAPKSPGAMVRRTYEEGFGVPGLVCVEKDATGDALDIALGMAKGVGLTRAGVIQTTFREETETDLFGEQAVLCGGVTELIKAGFETLVEAGYSPEMAYFETCHELKLIIDLIYQKGFAGMWNDVSNTAEYGGLTRRSRVINEQSRQEMRKILKEIQDGRFTKEWALENISGKAHLNSMRRIESELLIEEVGAKLRKMCGLQKD",,12
